Columns and labels:
Type in all cases: cell-based
Aspergillus flavus = assay: Agar plate disc-diffusion, antifungal inhibition zone; conditions: DMSO control zone subtracted
Description: (§1) The agar plate disc-diffusion method was applied. Sterilized filter papers (6 mm in diameter) were wetted with 10 μL of a solution of compounds 6-(6-bromo-2-oxo-2H-chromen-3-yl)-4-(3-bromophenyl)-2-ethoxynicotinonitrile 1 or 6-(6-bromo-2-oxo-2H-chromen-3-yl)-4-(3-bromophenyl)-2-methoxynicotinonitrile 2 to be tested, containing […], and the discs were allowed to air dry. The discs were then placed onto the surface of agar plates (nutrient agar for bacteria and Sabouraud's dextrose agar for fungi) seeded with the test organism. Each plate contained 15 mL of the agar medium, previously seeded with 0.2 mL of the broth culture of each organism pregrown for 18 hours. The plates were incubated at 37° C. for 48 hours, and 72 hours for fungi. The inhibition zones were measured in mm. Discs impregnated with DMSO were used as a control, and its inhibition zone was subtracted from the tested compound actual inhibition zone.
(§2) The results of the antimicrobial testing can be observed in Tables 1 and 2, below, using ciprofloxacin as a reference.

[1] = system: Chrysosporium keratinophilum; assay: as above; conditions: DMSO control zone subtracted
Description: as §1, §2

Staphylococcus aureus = assay: Agar plate disc-diffusion, antibacterial inhibition zone; conditions: DMSO control zone subtracted
Description: as §1, §2

Pseudomonas aeruginosa = assay: as above; conditions: DMSO control zone subtracted
Description: as §1, §2

Escherichia coli = assay: as above; conditions: DMSO control zone subtracted
Description: as §1, §2

Bacillus Cereus = assay: as above; conditions: DMSO control zone subtracted
Description: as §1, §2

different microbes = assay: Antimicrobial testing, overall conclusion; conditions: summary of Tables 1 and 2, bacteria and fungi
Description: as §1, §2
Their antibacterial activity was screened against gram positive bacteria namely Bacillus cereus and Staphylococcus aureus and gram-negative bacterial strains namely Pseudomonas aeruginosa and Escherichia coli, while their antifungal activity was screened against Aspergillus flavus and Chrysosporium keratinophilum.

[2] = A = concentration of comp. = 10,000 μL
[3] = B = concentration of comp. = 30,000 μL
[4] = C = concentration of comp. = 50,000 μL

| Structure (SMILES) | inhibition zone (Aspergillus flavus; [2]) [mm] | inhibition zone (Aspergillus flavus; [3]) [mm] | inhibition zone (Aspergillus flavus; [4]) [mm] | inhibition zone [1, 2] [mm] | inhibition zone [1, 3] [mm] | inhibition zone [1, 4] [mm] | inhibition zone (Staphylococcus aureus; [2]) [mm] | inhibition zone (Staphylococcus aureus; [3]) [mm] | inhibition zone (Staphylococcus aureus; [4]) [mm] | inhibition zone (Pseudomonas aeruginosa; A = concentration of comp.) [mm] | inhibition zone (Pseudomonas aeruginosa; [3]) [mm] | inhibition zone (Pseudomonas aeruginosa; [4]) [mm] | inhibition zone (Escherichia coli; [2]) [mm] | inhibition zone (Escherichia coli; [3]) [mm] | inhibition zone (Escherichia coli; [4]) [mm] | inhibition zone (Bacillus Cereus; A =) [mm] | inhibition zone (Bacillus Cereus; [3]) [mm] | inhibition zone (Bacillus Cereus; [4]) [mm] | antimicrobial activities (in words) (different microbes) |
| --- | --- | --- | --- | --- | --- | --- | --- | --- | --- | --- | --- | --- | --- | --- | --- | --- | --- | --- | --- |
| O=C(O)c1cn(C2CC2)c2cc(N3CCNCC3)c(F)cc2c1=O [Cip., ciprofloxacin, reference compound] | 29 | 30 | 42 | 29 | 30 | 53 | 43 | 44 | 53 | 29 | 30 | 53 | 30 | 39 | 60 | 29 | 30 | 42 |  |
| CCOc1nc(-c2cc3cc(Br)ccc3oc2=O)cc(-c2cccc(Br)c2)c1C#N [Compound 1, 6-(6-bromo-2-oxo-2H-chromen-3-yl)-4-(3-bromophenyl)-2-ethoxynicotinonitrile] | 20 | 24 | 34 | 25 | 28 | 39 | 16 | 19 | 33 | 24 | 28 | 38 | 28 | 37 | 48 | 23 | 26 | 36 | high antimicrobial activities |
| COc1nc(-c2cc3cc(Br)ccc3oc2=O)cc(-c2cccc(Br)c2)c1C#N [Compound 2, 6-(6-bromo-2-oxo-2H-chromen-3-yl)-4-(3-bromophenyl)-2-methoxynicotinonitrile] | 24 | 27 | 39 | 24 | 28 | 42 | 15 | 23 | 29 | 25 | 32 | 37 | 28 | 35 | 48 | 27 | 29 | 37 | high antimicrobial activities |
